In ChEMBL document CHEMBL3112539, “Synthesis of neoglycosphingolipid from methoxyamino-functionalized ceramide” (Bioorg Med Chem Lett, 2014) one finds inhibition data, which are given here for 1 compound.

Active and inactive are the calls of the source. No cut-off for these calls is given here.

Assay [1] concerns the target T1, Endoglycoceramidase II (Rhodococcus sp) (UniProt A0ACD6B832). Nature of the assay: Inhibition of Rhodococcus sp. recombinant endoglycoceramidase 2 hydrolytic activity assessed as lactose released from O-LacCer at 0.74 mM after 15 mins by modified Park and Johnson method.
In assay [2] the target is T1, Endoglycoceramidase II (Rhodococcus sp). Nature of the assay: Inhibition of Rhodococcus sp. recombinant endoglycoceramidase 2 hydrolytic activity assessed as lactose released from (2S,3S,4R)-2-[N-(octadecanoyl)amino]-1-{O-[beta-galactosylpyranosyl-(1->4)-beta-glucopyranosyl]}octadecane-1,3,4-triol at 0.27 mM after 15 mins by modified Park and Johnson method.
Assay [3] shares this target. Nature of the assay: Competitive inhibition of Rhodococcus sp. recombinant endoglycoceramidase 2 hydrolytic activity assessed as lactose released from (2S,3S,4R)-2-[N-(octadecanoyl)amino]-1-{O-[beta-galactosylpyranosyl-(1->4)-beta-glucopyranosyl]}octadecane-1,3,4-triol at 0.27 mM after 15 mins by modified Park and Johnson method.

T1 sequence (A0ACD6B832 as listed by the source): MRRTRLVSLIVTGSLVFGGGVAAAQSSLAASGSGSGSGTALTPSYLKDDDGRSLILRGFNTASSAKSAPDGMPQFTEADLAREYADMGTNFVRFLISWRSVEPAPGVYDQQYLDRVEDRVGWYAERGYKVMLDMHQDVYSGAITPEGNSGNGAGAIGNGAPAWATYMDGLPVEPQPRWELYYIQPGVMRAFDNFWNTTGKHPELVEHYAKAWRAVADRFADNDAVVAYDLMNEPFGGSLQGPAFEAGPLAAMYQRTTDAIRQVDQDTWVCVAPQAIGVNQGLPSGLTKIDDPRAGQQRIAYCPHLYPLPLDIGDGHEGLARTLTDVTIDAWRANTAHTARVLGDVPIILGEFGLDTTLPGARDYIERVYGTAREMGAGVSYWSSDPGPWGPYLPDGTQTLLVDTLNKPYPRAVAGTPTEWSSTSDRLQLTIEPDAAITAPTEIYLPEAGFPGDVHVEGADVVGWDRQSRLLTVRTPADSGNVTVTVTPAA

Regarding `CCCCCCCCCCCCCCCCCC(=O)N[C@@H](CN(OC)[C@@H]1O[C@H](CO)[C@@H](O[C@@H]2O[C@H](CO)[C@H](O)[C@H](O)[C@H]2O)[C@H](O)[C@H]1O)[C@H](O)[C@H](O)CCCCCCCCCCCCCC`, the inhibition entry in assay [1] is “inactive”. For the same compound, the inhibition result in assay [2] and in assay [3] was “Active” each time.
